The values below come from patent publication US11208412B2 (DAEGU-GYEONGBUK MEDICAL INNOVATION FOUNDATION, priority 2017, dated 2021).

Holding throughout (test): Kinase selectivity, DiscoverX scanMAX Kinase assay panel (% control)
What all share (assay type): binding

For assay [1], the target named is T1, kinases of the scanMAX Kinase assay panel (Homo sapiens, UniProt Q06187).
T1 construct: purchased DiscoverX Co. (contract measurement) scanMAX Kinase assay panel
The settings on record: BTK; 1 uM. The method in brief: (§1)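 Single-point screen, 1 uM cpd in DMSO. % ctrl = (cpd − pos ctrl)/(neg ctrl − pos ctrl)×100; pos ctrl = 0%, DMSO neg ctrl = 100%. Hit cutoff <35%.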

Assay [2] concerns the target T2, kinases of the scanMAX Kinase assay panel (Homo sapiens, UniProt Q13188).
T2 construct: purchased DiscoverX Co. (contract measurement) scanMAX Kinase assay panel
T2 sequence (Q13188 1-491): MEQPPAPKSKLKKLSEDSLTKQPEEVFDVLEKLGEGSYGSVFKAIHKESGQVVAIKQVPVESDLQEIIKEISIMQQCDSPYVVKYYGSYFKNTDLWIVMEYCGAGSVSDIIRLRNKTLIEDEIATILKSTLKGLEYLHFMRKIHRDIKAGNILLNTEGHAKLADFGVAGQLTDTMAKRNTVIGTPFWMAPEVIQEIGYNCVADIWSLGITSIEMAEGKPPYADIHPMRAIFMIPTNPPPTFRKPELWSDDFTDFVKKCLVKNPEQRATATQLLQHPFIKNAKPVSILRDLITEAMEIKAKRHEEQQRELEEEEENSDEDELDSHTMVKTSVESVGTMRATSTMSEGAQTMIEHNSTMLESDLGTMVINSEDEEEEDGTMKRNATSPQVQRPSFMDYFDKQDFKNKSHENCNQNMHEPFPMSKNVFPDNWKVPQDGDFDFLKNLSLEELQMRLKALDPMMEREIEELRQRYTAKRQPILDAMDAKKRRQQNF
The settings on record: MST2; 1 uM. The method in brief:
as §1

In assay [3] the target is T3, kinases of the scanMAX Kinase assay panel (Homo sapiens, UniProt Q04912).
T3 construct: purchased DiscoverX Co. (contract measurement) scanMAX Kinase assay panel
As to conditions: MST1R; 1 uM. The method in brief:
as §1

For assay [4], the target named is T4, kinases of the scanMAX Kinase assay panel (Homo sapiens, UniProt Q9H093).
T4 construct: purchased DiscoverX Co. (contract measurement) scanMAX Kinase assay panel
T4 sequence (Q9H093 1-628): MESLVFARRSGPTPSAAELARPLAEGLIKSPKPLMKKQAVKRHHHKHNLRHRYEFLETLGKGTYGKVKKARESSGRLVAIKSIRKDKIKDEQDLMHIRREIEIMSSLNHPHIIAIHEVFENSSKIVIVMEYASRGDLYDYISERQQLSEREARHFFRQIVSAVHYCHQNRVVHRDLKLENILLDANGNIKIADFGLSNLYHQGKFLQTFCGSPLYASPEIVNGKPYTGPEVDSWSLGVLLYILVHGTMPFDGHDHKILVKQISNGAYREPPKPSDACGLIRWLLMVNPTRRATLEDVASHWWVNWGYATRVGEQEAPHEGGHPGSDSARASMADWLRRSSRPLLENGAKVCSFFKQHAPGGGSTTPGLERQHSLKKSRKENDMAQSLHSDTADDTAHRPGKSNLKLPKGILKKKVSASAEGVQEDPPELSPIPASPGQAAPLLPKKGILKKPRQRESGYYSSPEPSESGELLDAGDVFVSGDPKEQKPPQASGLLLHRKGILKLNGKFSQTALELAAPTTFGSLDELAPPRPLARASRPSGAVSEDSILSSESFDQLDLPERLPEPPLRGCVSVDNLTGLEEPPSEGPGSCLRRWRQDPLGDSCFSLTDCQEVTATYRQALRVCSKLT
The settings on record: kinase SNARK; 1 uM in DMSO. The method in brief: as §1

Assay [5] concerns the target T5, kinases of the scanMAX Kinase assay panel (Homo sapiens, UniProt Q9Y4K4).
T5 construct: purchased DiscoverX Co. (contract measurement) scanMAX Kinase assay panel
As to conditions: MAP4K5; 1 uM. The method in brief: as §1

In assay [6] the target is T6, kinases of the scanMAX Kinase assay panel (Homo sapiens, UniProt Q5VT25).
T6 construct: purchased DiscoverX Co. (contract measurement) scanMAX Kinase assay panel
The settings on record: MRCKA; 1 uM. In outline: as §1

Assay [7] deals with T7, kinases of the scanMAX Kinase assay panel (Homo sapiens, UniProt P54646).
T7 construct: purchased DiscoverX Co. (contract measurement) scanMAX Kinase assay panel
The settings on record: AMPK-alpha2; 1 uM. The method in brief:
as §1

Assay [8] has as its target T8, kinases of the scanMAX Kinase assay panel (Homo sapiens, UniProt P11362).
T8 construct: purchased DiscoverX Co. (contract measurement) scanMAX Kinase assay panel
As to conditions: FGFR1; 1 uM. In outline: as §1

T7 sequence (P54646 whole entry): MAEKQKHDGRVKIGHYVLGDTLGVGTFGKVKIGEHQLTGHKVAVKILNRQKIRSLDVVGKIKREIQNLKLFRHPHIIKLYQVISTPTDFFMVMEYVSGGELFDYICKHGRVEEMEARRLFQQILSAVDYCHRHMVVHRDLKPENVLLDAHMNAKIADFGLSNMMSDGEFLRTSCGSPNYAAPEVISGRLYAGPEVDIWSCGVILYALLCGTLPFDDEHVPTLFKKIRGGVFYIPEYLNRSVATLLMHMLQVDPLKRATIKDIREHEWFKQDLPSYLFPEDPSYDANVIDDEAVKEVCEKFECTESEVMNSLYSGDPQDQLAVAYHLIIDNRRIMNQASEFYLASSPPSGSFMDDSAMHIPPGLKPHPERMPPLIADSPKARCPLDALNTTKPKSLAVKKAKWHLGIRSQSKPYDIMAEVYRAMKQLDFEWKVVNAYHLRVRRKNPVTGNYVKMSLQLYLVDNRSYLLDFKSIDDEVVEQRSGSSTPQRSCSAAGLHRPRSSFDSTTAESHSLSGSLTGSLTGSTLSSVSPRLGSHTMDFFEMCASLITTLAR
T1 sequence (Q06187 whole entry): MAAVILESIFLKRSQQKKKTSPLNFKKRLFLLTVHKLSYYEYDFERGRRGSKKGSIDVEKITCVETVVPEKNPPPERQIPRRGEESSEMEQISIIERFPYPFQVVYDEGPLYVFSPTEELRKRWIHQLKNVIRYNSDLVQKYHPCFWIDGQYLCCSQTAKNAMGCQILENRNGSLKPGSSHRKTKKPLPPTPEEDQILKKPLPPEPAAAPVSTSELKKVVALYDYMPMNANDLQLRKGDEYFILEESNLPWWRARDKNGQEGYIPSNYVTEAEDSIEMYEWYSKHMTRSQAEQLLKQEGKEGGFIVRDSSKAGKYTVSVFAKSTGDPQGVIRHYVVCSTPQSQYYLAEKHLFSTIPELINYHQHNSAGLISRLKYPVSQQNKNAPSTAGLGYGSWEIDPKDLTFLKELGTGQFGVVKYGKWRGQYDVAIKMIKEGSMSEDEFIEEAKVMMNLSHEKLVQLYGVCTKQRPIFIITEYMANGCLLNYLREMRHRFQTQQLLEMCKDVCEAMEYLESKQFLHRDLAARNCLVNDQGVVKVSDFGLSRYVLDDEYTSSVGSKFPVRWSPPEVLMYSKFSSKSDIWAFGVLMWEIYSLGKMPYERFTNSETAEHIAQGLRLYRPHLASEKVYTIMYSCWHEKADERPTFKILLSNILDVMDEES
T8 sequence (P11362 22-822): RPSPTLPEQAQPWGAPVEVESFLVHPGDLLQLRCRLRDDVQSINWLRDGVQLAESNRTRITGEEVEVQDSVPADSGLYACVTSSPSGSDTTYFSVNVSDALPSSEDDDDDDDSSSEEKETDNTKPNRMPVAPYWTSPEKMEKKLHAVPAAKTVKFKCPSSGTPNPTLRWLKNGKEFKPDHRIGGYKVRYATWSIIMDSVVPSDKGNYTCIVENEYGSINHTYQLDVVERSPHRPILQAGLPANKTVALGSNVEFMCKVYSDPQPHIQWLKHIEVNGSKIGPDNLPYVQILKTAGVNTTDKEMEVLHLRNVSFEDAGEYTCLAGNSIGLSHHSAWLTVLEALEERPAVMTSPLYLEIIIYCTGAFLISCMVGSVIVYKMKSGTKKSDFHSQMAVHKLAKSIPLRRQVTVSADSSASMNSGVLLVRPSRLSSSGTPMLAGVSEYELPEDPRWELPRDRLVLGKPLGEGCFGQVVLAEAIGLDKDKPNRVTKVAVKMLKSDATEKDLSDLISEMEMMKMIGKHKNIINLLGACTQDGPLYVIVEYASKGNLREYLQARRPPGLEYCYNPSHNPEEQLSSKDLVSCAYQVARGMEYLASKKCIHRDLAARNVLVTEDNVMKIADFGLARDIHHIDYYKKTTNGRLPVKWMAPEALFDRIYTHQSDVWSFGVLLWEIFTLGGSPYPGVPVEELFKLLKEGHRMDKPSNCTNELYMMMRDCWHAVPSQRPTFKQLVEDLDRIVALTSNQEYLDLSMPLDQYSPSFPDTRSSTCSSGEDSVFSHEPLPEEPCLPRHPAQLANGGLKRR
T6 sequence (Q5VT25 whole entry): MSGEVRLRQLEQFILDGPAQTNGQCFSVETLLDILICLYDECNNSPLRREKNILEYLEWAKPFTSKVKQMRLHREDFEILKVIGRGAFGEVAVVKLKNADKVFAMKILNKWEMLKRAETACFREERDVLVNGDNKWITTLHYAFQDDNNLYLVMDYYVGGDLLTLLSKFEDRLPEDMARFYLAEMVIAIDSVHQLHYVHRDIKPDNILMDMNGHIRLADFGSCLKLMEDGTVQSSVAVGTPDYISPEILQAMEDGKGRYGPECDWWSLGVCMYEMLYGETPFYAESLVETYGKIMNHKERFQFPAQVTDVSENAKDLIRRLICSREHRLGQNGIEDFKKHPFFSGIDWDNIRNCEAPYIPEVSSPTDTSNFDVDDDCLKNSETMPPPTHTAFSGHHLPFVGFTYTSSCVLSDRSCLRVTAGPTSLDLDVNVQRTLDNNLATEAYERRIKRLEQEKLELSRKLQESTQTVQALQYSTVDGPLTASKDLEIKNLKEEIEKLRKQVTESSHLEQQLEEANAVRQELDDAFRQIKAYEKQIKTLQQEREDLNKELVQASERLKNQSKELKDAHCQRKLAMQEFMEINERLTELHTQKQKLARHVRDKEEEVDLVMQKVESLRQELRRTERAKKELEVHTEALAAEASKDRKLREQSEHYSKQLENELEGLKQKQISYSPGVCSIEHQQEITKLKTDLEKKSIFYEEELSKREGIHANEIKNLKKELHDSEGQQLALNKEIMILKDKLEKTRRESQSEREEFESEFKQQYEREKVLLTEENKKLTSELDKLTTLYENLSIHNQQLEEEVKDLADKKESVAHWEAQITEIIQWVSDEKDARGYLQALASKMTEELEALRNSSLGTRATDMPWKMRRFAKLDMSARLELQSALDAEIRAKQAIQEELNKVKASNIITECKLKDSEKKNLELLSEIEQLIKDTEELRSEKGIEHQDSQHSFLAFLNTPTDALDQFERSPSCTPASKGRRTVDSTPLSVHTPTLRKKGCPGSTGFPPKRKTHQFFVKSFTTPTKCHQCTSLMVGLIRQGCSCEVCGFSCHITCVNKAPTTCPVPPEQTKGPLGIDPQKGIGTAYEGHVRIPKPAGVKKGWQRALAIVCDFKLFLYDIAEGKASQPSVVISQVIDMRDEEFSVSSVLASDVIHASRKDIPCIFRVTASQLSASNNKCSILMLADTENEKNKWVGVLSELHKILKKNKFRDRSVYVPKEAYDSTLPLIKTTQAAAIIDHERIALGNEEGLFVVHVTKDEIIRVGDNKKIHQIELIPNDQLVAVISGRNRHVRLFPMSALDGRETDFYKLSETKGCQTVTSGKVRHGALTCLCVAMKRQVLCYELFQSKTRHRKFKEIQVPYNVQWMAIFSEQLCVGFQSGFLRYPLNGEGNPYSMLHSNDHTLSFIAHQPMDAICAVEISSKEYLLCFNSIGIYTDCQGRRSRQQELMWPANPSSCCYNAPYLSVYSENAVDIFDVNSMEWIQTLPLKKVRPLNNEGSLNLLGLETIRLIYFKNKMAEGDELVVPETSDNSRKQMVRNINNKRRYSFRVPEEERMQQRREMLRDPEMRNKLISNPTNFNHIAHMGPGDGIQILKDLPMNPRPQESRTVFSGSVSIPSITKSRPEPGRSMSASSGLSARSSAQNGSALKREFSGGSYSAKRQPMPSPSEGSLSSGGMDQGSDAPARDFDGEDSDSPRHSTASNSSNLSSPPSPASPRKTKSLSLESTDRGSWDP
T3 sequence (Q04912 25-1400): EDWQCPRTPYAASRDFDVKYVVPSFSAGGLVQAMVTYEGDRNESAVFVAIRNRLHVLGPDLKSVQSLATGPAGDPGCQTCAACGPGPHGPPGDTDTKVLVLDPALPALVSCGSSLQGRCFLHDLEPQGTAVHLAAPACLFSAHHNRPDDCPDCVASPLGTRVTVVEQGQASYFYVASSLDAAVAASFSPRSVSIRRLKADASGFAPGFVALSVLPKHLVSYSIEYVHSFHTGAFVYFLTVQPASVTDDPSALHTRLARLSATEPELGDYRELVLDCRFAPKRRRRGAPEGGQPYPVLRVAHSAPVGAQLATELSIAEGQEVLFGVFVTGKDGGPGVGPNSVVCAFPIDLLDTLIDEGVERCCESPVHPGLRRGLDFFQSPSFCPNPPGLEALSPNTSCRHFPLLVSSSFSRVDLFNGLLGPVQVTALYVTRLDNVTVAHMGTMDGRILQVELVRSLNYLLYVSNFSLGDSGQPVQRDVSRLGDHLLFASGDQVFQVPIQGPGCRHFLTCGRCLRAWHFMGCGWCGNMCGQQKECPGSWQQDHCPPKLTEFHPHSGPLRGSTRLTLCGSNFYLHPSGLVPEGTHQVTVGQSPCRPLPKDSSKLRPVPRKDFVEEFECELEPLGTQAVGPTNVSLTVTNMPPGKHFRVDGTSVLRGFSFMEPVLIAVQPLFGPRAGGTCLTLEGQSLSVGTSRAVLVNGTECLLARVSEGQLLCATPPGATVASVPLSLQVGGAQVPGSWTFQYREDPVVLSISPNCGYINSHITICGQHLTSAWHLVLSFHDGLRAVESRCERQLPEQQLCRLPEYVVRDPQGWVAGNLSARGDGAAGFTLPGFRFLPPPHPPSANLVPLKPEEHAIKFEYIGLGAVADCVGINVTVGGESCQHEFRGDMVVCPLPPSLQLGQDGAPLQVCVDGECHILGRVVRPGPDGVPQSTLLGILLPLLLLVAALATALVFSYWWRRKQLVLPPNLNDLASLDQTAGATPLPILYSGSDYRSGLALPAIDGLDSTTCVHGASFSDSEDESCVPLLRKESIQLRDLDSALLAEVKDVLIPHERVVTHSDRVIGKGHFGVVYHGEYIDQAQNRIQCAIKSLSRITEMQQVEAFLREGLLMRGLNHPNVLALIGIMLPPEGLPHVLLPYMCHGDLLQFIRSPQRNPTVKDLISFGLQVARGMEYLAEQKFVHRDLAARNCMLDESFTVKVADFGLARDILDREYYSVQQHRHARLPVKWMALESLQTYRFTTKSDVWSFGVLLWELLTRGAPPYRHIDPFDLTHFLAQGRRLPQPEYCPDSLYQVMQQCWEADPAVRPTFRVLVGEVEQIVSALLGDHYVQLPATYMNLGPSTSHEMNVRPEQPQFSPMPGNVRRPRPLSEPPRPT

On to `CNc1nc(Nc2ccc(C(=O)N3CCOCC3)cc2OC)nc2[nH]cc(C#N)c12` [Example 1, 2-((2-methoxy-4-(morpholine-4-carbonyl)phenyl)amino)-4-(methylamino)-7H-pyrrolo[2,3-d]pyrimidine-5-carbonitrile], for which the remaining binding at 1 µM in assay [1] amounted to 72%; in assay [2], 92%; in assay [3] it was 88%; in assay [4], 77%; in assay [5], 89%; in assay [6] it was 100%. For the same compound, the figures for the remaining binding at 1 µM in assay [7] and in assay [8] were 85% and 97%, respectively.
In the case of `CC1(Nc2nc(Nc3cnn([C@H]4CCN(C5COC5)C[C@@H]4F)c3Cl)nc3[nH]cc(C#N)c23)CC1` [Example 52, 2-((5-chloro-1-((3S,4S)-3-fluoro-1-(oxetane-3-yl)piperidine-4-yl)-1H-pyrazole-4-yl)amino)((1-methylcyclopropyl)amino)-7H-pyrrolo[2,3-d]pyrimidine-5-carbonitrile], the remaining binding at 1 µM in assay [1] came out at 9.1%; in assay [2], 15%; in assay [3], 78%; in assay [4] it was 0.95%; in assay [5], 30%; in assay [6] it was 100%. In addition, the remaining binding at 1 µM in assay [7] came to 9.9%; in assay [8] it was 42%.
With `CCNc1nc(Nc2ccc(C(=O)N3CCC(N4CCOCC4)CC3)cc2OC)nc2[nH]cc(C(F)(F)F)c12` [Example 104, (4-((4-(ethylamino)-5-(trifluoromethyl)-7H-pyrrolo[2,3-d]pyrimidine-2-yl)amino)-3-methoxyphenyl)(4-morpholinopiperidine-1-yl)methanone], the remaining binding at 1 µM is 100% in assay [1]; 71% in assay [2]; 95% in assay [3]; 91% in assay [4]; 100% in assay [5]; 100% in assay [6]. In addition, the remaining binding at 1 µM in assay [7] and in assay [8] was 100% in each case.
